The values below come from PubChem BioAssay (NCI).

What all share (test): NCI tumour cell line growth inhibition, 48 h
For test [1], the system named is SK-MEL-5 melanoma.
In test [2] the test system is KM12 colon.
The subject of test [3] is U251 CNS.
Test [4] has as its system PC-3 prostate.
Test [5] relates to HL-60(TB) leukemia.
The test system of test [6] is MDA-MB-435.
For test [7], the system named is RPMI-8226 leukemia.
Test [8] deals with HT29 colon.

Where “and” joins values, the source holds several entries; their conditions need not be identical. Equal values may be shown once.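 Each compound was tested at five concentrations against cells in 96-well plates for 48 hours. GI50 is the concentration that inhibits growth by half. TGI marks complete inhibition of growth.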

For `N#CC(=S)Nc1cccc(Cl)c1`, the TGI in test [1] was 44.5 µM; in test [2], more than 100 µM; in test [3], more than 100 µM; in test [4] it was more than 100 µM; in test [5] it was 70.4 µM; in test [6], more than 100 µM. In addition, the TGI was 61.4 µM in test [7] and more than 100 µM in test [8].

With `C=C1C(=O)O[C@H]2[C@H]1CC/C(COC(=O)NCc1cc3ccccc3[nH]1)=C\CC[C@@]1(C)O[C@@H]21`, the GI50 is 2.98 µM in test [1]; 3.3 µM in test [2]; 4.59 µM in test [3]; 1.63 µM in test [4]; 0.865 µM in test [5]; 1.75 µM in test [6]. Also, the GI50 in test [7] was 0.604 µM; in test [8] it was 2.21 µM. The TGI in test [1] came out at 9.71 µM; in test [2], 12.8 µM; in test [3], 16.4 µM; in test [4] it was 3.46 µM; in test [5], 3.16 µM; in test [6] it was 3.48 µM. The figures for the TGI in test [7] and in test [8] were 3.27 µM and 4.7 µM, respectively.

As to `Cc1c(N=Nc2ccc([N+](=O)[O-])cc2)nc2scc(-c3ccccc3)n12`, the TGI in test [1] was more than 100 µM; in test [2], more than 100 µM; in test [3], more than 100 µM; in test [4] it was more than 100 µM; in test [5], 49.2 µM; in test [6], more than 100 µM. For the same compound, the TGI in test [7] and in test [8] was more than 100 µM each time.

Take `Nc1ccccc1C#C/C=C\C#Cc1ccccc1C(F)(F)F`: the GI50 in test [1] was 0.841 µM; in test [2] it was 1 µM; in test [3] it was 0.621 µM; in test [4], 4.41 µM; in test [5], 1.04 µM; in test [6], 0.355 µM. For the same compound, the GI50 in test [7] was 1.46 µM; in test [8], 3.58 µM. Further, the TGI in test [1] is 6.3 µM; in test [2], 12.7 µM; in test [3], 15.7 µM; in test [4], 45.1 µM; in test [5] it was more than 27.7 µM; in test [6], 1.3 µM. For the same compound, the TGI in test [7] is more than 51 µM; in test [8] it was more than 100 µM.

Take `CC[C@]1(O)CC2CN(CCc3c([nH]c4ccccc34)[C@@](C(=O)OC)(c3cc4c(cc3OC)N(C)[C@H]3[C@@](O)(C(=O)OC)[C@H](OC(C)=O)[C@]5(CC)C=CCN6CC[C@]43[C@@H]65)C2)C1` (some centres undefined): the GI50 in test [1], in test [2], in test [3], in test [4], in test [5] and in test [6] was less than 0.005 µM each time. The GI50 in test [7] and in test [8] was less than 0.005 µM throughout. The TGI was 0.0607 µM in test [1]; 0.141 µM in test [2]; 6.5 µM in test [3]; 12.3 µM in test [4]; less than 0.005 µM in test [5]; less than 0.005 µM in test [6]. Also, the figures for the TGI in test [7] and in test [8] were 8.48 µM and 5.18 µM, respectively.

For the compound `O=c1cc(C(F)(F)F)c2cc3c(cc2o1)NCCC3`, the TGI in test [1] is more than 100 µM; in test [2] it was more than 100 µM; in test [3], 63.4 µM; in test [4], more than 100 µM; in test [5] it was more than 100 µM; in test [6] it was more than 100 µM. Besides, the TGI in test [7] and in test [8] was more than 100 µM throughout.

With `CCCC[C@H]1C(=O)O[C@H](C)[C@H](NC(=O)c2cccc(NC=O)c2O)C(=O)O[C@@H](C)[C@@H]1OC(=O)CC(C)C`, the TGI was determined as 16.8 µM in test [1]; 30.8 µM in test [2]; 21.9 µM in test [3]; 32.9 µM in test [4]; 34.2 µM in test [5]; 44.6 µM in test [6]. In addition, the values for the TGI in test [7] and in test [8] were 24.4 µM and 27.4 µM, respectively.

For `Cc1c(C#N)cccc1-c1cc(-c2cn(Cc3cccc(C(C)(C)O)n3)nn2)nc(N)n1`, the GI50 was 15 µM in test [1]; 47.4 µM in test [2]; 39.8 µM in test [3]; 17.7 µM in test [4]; 12.2 µM in test [5]; 26.8 µM in test [6]. The GI50 in test [7] is 7.57 µM; in test [8], 28.2 µM. Moreover, the TGI in test [1] is 35.1 µM; in test [2], more than 100 µM; in test [3], more than 100 µM; in test [4] it was 87.5 µM; in test [5], 46 µM; in test [6], more than 100 µM. For the same compound, the TGI is 34.9 µM in test [7] and more than 100 µM in test [8].

Consider `O=C(/C=C/c1cccnc1)NCCCCC1CCN(C(=O)c2ccccc2)CC1`, for which the GI50 in test [1] was 35.3 µM and 21.8 µM; in test [2], 0.0145 µM and < 0.0118 µM; in test [4], less than 0.01 µM; in test [5], more than 65.6 µM; in test [6], less than 0.01 µM; in test [8], less than 0.01 µM. The TGI in test [1], in test [2], in test [3], in test [4], in test [5] and in test [6] was more than 100 µM each time. For the same compound, the TGI in test [7] and in test [8] was more than 100 µM in each case.

With `OCc1cn(Cc2cccc(Cl)c2)c2ccccc12`, the GI50 in test [1] is 11 µM; in test [2], 16.2 µM; in test [3] it was 0.865 µM; in test [4], 15.5 µM; in test [5] it was 5.38 µM; in test [6], 14.8 µM. The results for the GI50 in test [7] and in test [8] were 0.632 µM and 1.83 µM, respectively. In addition, the TGI amounted to 23.7 µM in test [1]; 33.8 µM in test [2]; 22.6 µM in test [3]; 39.9 µM in test [4]; 21.1 µM in test [5]; 35.5 µM in test [6]. The values for the TGI in test [7] and in test [8] were 20 µM and 34.3 µM, respectively.

With `C/C(=N/S(=O)(=O)c1ccc(Cl)c(Cl)c1)OCC(C)(C)C`, the TGI in test [1], in test [2], in test [3], in test [4], in test [5] and in test [6] was more than 100 µM in each case. Also, the TGI in test [7] and in test [8] was more than 100 µM each time.

For the compound `COc1cc2oc(=O)ccc2cc1C1OC(=O)C2OC21C` (centres undefined), the TGI in test [1], in test [2], in test [3], in test [4], in test [5] and in test [6] was more than 100 µM in each case. In addition, the TGI in test [7] and in test [8] was more than 100 µM throughout.

In the case of `CCN(CC)c1ccc(/C=C\c2cc(C)c3cc(C)ccc3n2)cc1`, the GI50 in test [1] is 1.71 µM; in test [2] it was 3.39 µM; in test [3], 5.35 µM; in test [4], 3.69 µM; in test [5], 3.23 µM; in test [6] it was 2.1 µM. For the same compound, the GI50 in test [7] was 3.13 µM; in test [8], 2.65 µM. Moreover, the TGI in test [1] is 4.57 µM; in test [2], 29.6 µM; in test [3], more than 100 µM; in test [4], 81.1 µM; in test [5], 7.66 µM; in test [6] it was more than 100 µM. The TGI was determined as 8.7 µM in test [7] and 11.4 µM in test [8].

Take `c1ccc(Cc2nc3ccc(Nc4ncnc5ccccc45)cc3[nH]2)cc1`: the GI50 in test [1] was more than 25 µM; in test [2], more than 25 µM; in test [3] it was more than 25 µM; in test [4] it was more than 25 µM; in test [5], 20 µM; in test [6] it was more than 25 µM. The GI50 in test [7] was 16.8 µM; in test [8], 9.07 µM. The TGI in test [1], in test [2], in test [3], in test [4], in test [5] and in test [6] was more than 25 µM throughout. For the same compound, the TGI in test [7] and in test [8] was more than 25 µM throughout.

Regarding `NC(=O)c1cnc(N[C@@H]2CCCC[C@@H]2N)nc1Nc1cccc(-n2nccn2)c1`, the GI50 in test [1] was 5.37 µM; in test [2], 2.15 µM; in test [3] it was 5.87 µM; in test [4] it was 5.16 µM; in test [5], 1.5 µM; in test [6] it was 3.03 µM. Moreover, the GI50 is 6.7 µM in test [7] and 2.82 µM in test [8]. Further, the TGI in test [1] worked out at 18 µM; in test [2], 10.2 µM; in test [3], 18.2 µM; in test [4], 20.7 µM; in test [5], 3.82 µM; in test [6] it was 10.9 µM. Moreover, the TGI worked out at 23 µM in test [7] and 11.5 µM in test [8].

Regarding `COc1ccccc1-[n+]1cc(-c2ccc(-c3ccccc3)cc2)n2c1CCCCC2`, the GI50 in test [1] was 0.166 µM; in test [2] it was 0.288 µM; in test [3], 0.383 µM; in test [4] it was 0.228 µM; in test [5], 0.0429 µM; in test [6] it was 0.27 µM. The GI50 in test [8] was 0.281 µM. The TGI was determined as 0.475 µM in test [1]; 3.17 µM in test [2]; 15.7 µM in test [3]; 8.95 µM in test [4]; 1.01 µM in test [5]; 3.6 µM in test [6]. Also, the TGI in test [7] is 1.53 µM; in test [8] it was 10.2 µM.

In the case of `N[C@@H](Cc1c[nH]c2ccccc12)C(=O)NC1CCN(C(=O)c2c[nH]c3ccccc23)CC1`, the GI50 in test [1] is more than 100 µM; in test [2], 84.8 µM; in test [3], more than 100 µM; in test [4], more than 100 µM; in test [5], more than 100 µM; in test [6], more than 100 µM. The GI50 in test [7] and in test [8] was more than 100 µM in each case. Moreover, the TGI in test [1], in test [2], in test [3], in test [4], in test [5] and in test [6] was more than 100 µM throughout. Moreover, the TGI in test [7] and in test [8] was more than 100 µM throughout.

As for `Cc1ccc(C(=O)Nc2ccc(CN3CCN(C)CC3)c(C(F)(F)F)c2)cc1C#Cc1cnc(N)cc1C#N`, the GI50 in test [1] is 0.741 µM; in test [2] it was 0.122 µM; in test [3] it was 0.222 µM; in test [4] it was 0.343 µM; in test [5], 0.233 µM; in test [6], 0.0721 µM. Also, the GI50 was 0.496 µM in test [7] and 0.051 µM in test [8]. The TGI in test [1] was determined as 1.43 µM; in test [2], 0.716 µM; in test [3] it was 0.997 µM; in test [4], 1.76 µM; in test [5] it was 1.08 µM; in test [6], 0.659 µM. Moreover, the TGI was found to be 2.7 µM in test [7] and 0.729 µM in test [8].

In the case of `COc1cc(Nc2nc3cc(N)cc(N)c3nc2-c2ccccc2)cc(OC)c1`, the GI50 in test [1] is 10.5 µM; in test [2] it was 13.3 µM; in test [3], 22.9 µM; in test [4] it was 1.96 µM; in test [5] it was 9.99 µM; in test [6], 11.5 µM. For the same compound, the GI50 in test [7] is 1.27 µM; in test [8], 27.3 µM. In addition, the TGI is 30 µM in test [1]; 31.2 µM in test [2]; more than 100 µM in test [3]; 10.9 µM in test [4]; more than 100 µM in test [5]; 23.8 µM in test [6]. For the same compound, the TGI in test [7] was 10.4 µM; in test [8], more than 100 µM.

For `CN(C)CCCn1c2c(c3cnccc3c1=O)C(=O)c1ccccc1-2`, the GI50 in test [1] was 0.363 µM; in test [2], 0.488 µM; in test [3], 0.425 µM; in test [4], 0.485 µM; in test [5], 0.514 µM; in test [6] it was 0.49 µM. The GI50 was 0.337 µM in test [7] and 0.242 µM in test [8]. The TGI in test [1] came out at 1.48 µM; in test [2] it was 9.58 µM; in test [3] it was 11.4 µM; in test [4], 3.93 µM; in test [5], 4.65 µM; in test [6], 2.48 µM. Besides, the TGI in test [7] was 1.65 µM; in test [8] it was 11.3 µM.
